In patent US9127040B2, “Regulation of sodium channels by PLUNC proteins” (The University of North Carolina at Chapel Hill, priority 2011, dated 2015):

Key:
[1] = target: T1, ENaC (Homo sapiens, UniProt P37088+P51168+P51170); assay: Transepithelial voltage (PD), thin film conditions, human bronchial epithelial cultures; format: cell-based; parameters: reduction of transepithelial voltage: dose or concentration left out as unconfirmed
T1 construct: measured the transepithelial voltage under thin film conditions in human bronchial epithelial cultures; endogenous in cells; host or cells: primary human bronchial epithelial cultures (normal or CF donors)
T1 sequence (P37088 1-669): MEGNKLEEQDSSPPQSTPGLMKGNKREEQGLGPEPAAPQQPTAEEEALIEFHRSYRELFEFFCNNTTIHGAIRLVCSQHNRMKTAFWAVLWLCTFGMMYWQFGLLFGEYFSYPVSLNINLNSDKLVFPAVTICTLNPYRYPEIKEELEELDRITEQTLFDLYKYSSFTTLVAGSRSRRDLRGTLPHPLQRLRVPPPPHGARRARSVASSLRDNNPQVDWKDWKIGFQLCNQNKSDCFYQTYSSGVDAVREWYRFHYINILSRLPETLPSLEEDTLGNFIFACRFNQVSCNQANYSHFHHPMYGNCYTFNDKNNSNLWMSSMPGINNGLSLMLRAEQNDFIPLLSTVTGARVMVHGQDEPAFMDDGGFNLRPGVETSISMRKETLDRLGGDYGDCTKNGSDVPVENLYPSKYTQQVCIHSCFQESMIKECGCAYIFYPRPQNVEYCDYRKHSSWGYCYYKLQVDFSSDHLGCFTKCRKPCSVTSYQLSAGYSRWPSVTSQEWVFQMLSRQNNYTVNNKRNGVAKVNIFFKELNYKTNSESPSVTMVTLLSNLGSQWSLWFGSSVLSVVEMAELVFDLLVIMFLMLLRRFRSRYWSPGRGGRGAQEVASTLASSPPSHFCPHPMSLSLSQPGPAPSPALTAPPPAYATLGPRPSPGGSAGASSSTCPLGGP
T1 sequence (P51168 1-640): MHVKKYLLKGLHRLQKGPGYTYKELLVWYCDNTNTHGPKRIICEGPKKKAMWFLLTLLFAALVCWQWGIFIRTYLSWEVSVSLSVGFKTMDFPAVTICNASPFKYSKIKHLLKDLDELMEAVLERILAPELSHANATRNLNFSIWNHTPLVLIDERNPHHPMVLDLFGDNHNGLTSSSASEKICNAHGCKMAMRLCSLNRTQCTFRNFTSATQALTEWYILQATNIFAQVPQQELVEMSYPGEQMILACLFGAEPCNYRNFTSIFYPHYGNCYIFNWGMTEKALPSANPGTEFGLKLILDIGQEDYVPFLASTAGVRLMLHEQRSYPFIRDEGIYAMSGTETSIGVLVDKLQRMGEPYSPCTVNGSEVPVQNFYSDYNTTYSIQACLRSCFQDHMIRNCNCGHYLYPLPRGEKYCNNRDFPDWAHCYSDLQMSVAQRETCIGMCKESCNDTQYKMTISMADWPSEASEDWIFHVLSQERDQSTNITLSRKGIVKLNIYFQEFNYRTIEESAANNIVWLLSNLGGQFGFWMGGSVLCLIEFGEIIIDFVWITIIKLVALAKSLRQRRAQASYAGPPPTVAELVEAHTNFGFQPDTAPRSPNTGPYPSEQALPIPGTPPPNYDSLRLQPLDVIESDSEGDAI
T1 sequence (P51170 1-649): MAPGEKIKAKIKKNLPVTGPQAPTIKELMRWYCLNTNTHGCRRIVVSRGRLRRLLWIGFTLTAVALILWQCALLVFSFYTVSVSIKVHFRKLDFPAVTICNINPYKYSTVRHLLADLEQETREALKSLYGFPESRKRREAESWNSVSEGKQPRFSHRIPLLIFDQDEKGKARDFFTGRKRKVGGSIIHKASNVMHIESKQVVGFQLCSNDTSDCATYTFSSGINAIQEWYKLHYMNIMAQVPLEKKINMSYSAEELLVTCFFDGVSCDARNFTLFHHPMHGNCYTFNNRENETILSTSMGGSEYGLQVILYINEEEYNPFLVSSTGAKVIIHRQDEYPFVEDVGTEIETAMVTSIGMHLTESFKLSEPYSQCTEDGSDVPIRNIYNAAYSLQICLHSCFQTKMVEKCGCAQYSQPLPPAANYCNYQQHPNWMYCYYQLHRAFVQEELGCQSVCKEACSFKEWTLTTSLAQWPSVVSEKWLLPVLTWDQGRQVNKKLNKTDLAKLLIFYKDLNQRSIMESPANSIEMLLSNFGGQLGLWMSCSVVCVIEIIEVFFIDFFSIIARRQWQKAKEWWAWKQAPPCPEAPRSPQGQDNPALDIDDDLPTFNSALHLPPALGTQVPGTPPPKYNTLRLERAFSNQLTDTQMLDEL
From the text: Tissue procurement and cell culture: Cells were harvested by enzymatic digestion from human bronchial tissue as previously described under a protocol approved by the UNC School of Medicine IRB (Tarran et al., J. Gen. Physiol. 127:591 (2006)). Human excess donor lungs and excised recipient lungs were obtained at the time of lung transplantation from portions of main stem or […] bronchi and cells were harvested by enzymatic digestion. All preparations were maintained at an air-liquid interface in a modified bronchial epithelial medium and used 2-5 weeks after seeding on 12 mm T-Clear inserts (Corning Costar) coated with human placental type VI collagen (Sigma). Phosphate buffered saline (PBS) was used for washing human bronchial epithelial culture mucosal surfaces. HBECs were maintained at an air-liquid interface in a modified bronchial epithelial growth medium (BEGM) with 5% CO2 at 37° C. and used 2-5 weeks after seeding on 12-mm T-clear inserts (Corning-Costar, Corning, N.Y., USA) (Randell, Methods Mol. Biol. 742:285 (2011)).
(§1) A single-barreled potential difference-sensing electrode was placed in the airway surface liquid by micromanipulator and used in conjunction with a macroelectrode in the serosal solution to measure transepithelial voltage using a voltmeter (World Precision Instruments). […] Transepithelial resistance was routinely measured using the EVOM system (WPI) as previously described (Tarran et al., J. Gen. Physiol. 127:591 (2006)).

[2] = target: T1, ENaC; assay: Transepithelial electrical resistance in human bronchial epithelial cultures; format: cell-based; settings: 50 ng/ml SPLUNC1 30 min or amiloride 10 min; effects not additive
From the text: as §1, with “([…]” for “(Tarran”

[3] = target: T2, βENaC (Homo sapiens, UniProt P51168); assay: Biotinylated peptide pull-down of ENaC subunits from HEK293T cells; format: binding; settings: subunits individually expressed, biotinylated peptide
T2 construct: expressed in transfected cells; host or cells: HEK293T cells (lysate)
T2 sequence (P51168 1-640): T1 sequence (P51168 1-640)
Protocol: HEK293T cells were transfected with double-tagged human ENaC subunits with HA and V5 epitopes at the N- and C-termini, respectively, in combination with wild-type untagged subunit cDNA. When all three ENaC subunits were expressed, 0.5 μg of each subunit were transfected per well. When expressed individually, 0.75 μg of the subunit were transfected per well. The transfected cells were lysed 24 h later using NP-40 buffer with 1× complete EDTA-free protease inhibitor (Roche, Basel, Switzerland). The lysate was centrifuged at 16,300×g for 15 minutes at 4° C. and the supernatant collected. Protein concentration was determined using the BCA assay and 500 μg of protein plus 0.25 mg peptide and 100 μL of neutravidin were added to a spin column and rotated end-over-end at 4° C. for 24 h (all ThermoFisher Scientific, Rockford, Ill., USA). Flow-through was collected by centrifugation at 1000×g for 30 s. The beads were then washed 5× with NP-40 buffer. Bound protein was eluted by boiling at 95° C. for 10 minutes in 75 μL of 2×LDS NuPAGE sample buffer with 1× sample reducing agent followed by centrifugation at 16,300×g for 2 minutes. Samples were resolved on 4-12% Bis-Tris gels in MES and transferred to a nitrocellulose membrane using iBlot, setting P3 for 8 min (Invitrogen, Carlsbad, Calif., USA). The membrane was probed using 1:1000 anti-V5 antibody (Invitrogen, Carlsbad, Calif., USA) overnight at 4° C. in 3% fish gelatin in TBS-T. The blot was then incubated for 1 h at room temperature with an ECL sheep anti-mouse IgG secondary antibody and detected by ECL reagent (ThermoFisher Scientific, Waltham, Mass., USA) or by incubation with a goat anti-mouse IRDye secondary antibody and analyzed by an Odyssey infrared imaging system (LI-COR Biosciences, Lincoln, Nebr., USA).
Peptide pull-down assays were performed as described above. Samples were eluted by the addition of 100 μL of 0.1 M sodium citrate, pH 5.5, 0.1% SDS to the beads and incubating at 100° C. for 2 minutes, followed by centrifugation at 16,300×g for 2 minutes. […]

[4] = target: T1, ENaC; assay: ASL height 6 h after exposure, alanine scan of S18; format: cell-based
Protocol: To label the ASL, PBS containing 10 kDa Rhodamine dextran (0.2-2 mg/mL; Invitrogen, Carlsbad, Calif., USA) was added to HBEC mucosal surfaces as previously described (Tarran et al., Mol. Cell 8:149 (2001)). When added, peptides with or without 100 nM neutrophil elastase, 1 U/mL aprotinin, activated neutrophil supernatant (ANS) (Haynes et al., Am. J. Physiol. Heart Circ. Physiol. 294:H379 (2008)) or 10 μM sivelestat (Sigma-Aldrich, St Louis, Mo., USA) were added to the mucosal surface along with the Rhodamine dextran. Bumetanide (100 μM) was added to the serosal solution.
ASL height was measured 6 h after exposure to vehicle, control peptide, S18 or S18 with specific residues mutated to alanine as outlined in FIG. 31. […] NB, G1, G2 and A18 were not mutated. […] All n=6.

[5] = tested on: trypsin; assay: Cell-free fluorogenic assay, trypsin cleavage of BGAR-MCA; format: biochemical; settings: 50 ng/ml rSPLUNC1 or 2 U/ml aprotinin; 1.0 or 0.3 U/ml trypsin
Protocol: (§2) For cell-free assays, reactions were carried out in 50 μl Ringer in a 96 well plate format with 100 μM BGAR-MCA. To measure endogenous protease activity in human bronchial epithelial cultures, 30 μl Ringer with 100 μM BGAR-MCA were placed directly onto the mucosal surfaces of human bronchial epithelial cultures grown on 12 mm T-clear inserts and the cultures were assayed in 12 well plates.

[6] = tested on: serine proteases; assay: Endogenous protease activity (BGAR-MCA cleavage) on mucosal surface of human bronchial epithelial cultures; format: cell-based
Protocol: as §2

[7] = target: T3, αENaC-eGFP and βENaC-mCherry (Homo sapiens, UniProt P37088+P51168); assay: Acceptor-photobleaching FRET between fluorescently tagged ENaC subunits; format: cell-based; settings: one hour of exposure
T3 construct: expressed in transfected cells
From the text: Ai, cartoon of αENaC-eGFP and βENaC-mCherry under basal conditions (γENaC not shown). Aii We hypothesize that S18 binding to the extracellular loop of βENaC (1) induces a conformational change in ENaC which is reflected as altered intracellular FRET (2). This change may facilitate NEDD4-2-induced ubiquitination (3), leading to internalization of αβγENaC (4). […] In contrast, exposure to aprotinin had no effect. All n=8-10. C, Typical confocal images of HEK cells expressing αγENaC and βENaC-eGFP before and 1 h after 100 μM S18. Cell outlines are traced in white.
Since ENaC is regulated by NEDD4-2 binding to its C-termini, which leads to ubiquitination of its N-termini and internalization, we propose that S18 causes a conformational change in ENaC, leading to increased ubiquitination followed by internalization (FIG. 21A). As a first step towards understanding the mechanism of action of SPLUNC1, we performed FRET on fluorescently tagged ENaCs. […] Furthermore, βENaC-eGFP internalized upon S18 binding (FIG. 21C), consistent with our surface biotinylation data from oocytes.

[8] = tested on: CF HBECs; settings: 8 h ASL height

## N=C(N)NC(=O)c1nc(Cl)c(N)nc1N [amiloride, reference compound]
[1]; amiloride for 10 min (FIG. 4 legend), n=12
  reduction of transepithelial voltage: 54%
[2]
  increase of transepithelial electrical resistance: ~33%

## ADGGLLLLNNPPPPQTVV (Control peptide sequence) [ABC, reference compound]
[3]
  binding to βENaC (pull-down): No β-ENaC was observed in the elution
[4]
  ASL height: no effect on ASL height

## aprotinin [reference compound]
[1]; rSPLUNC1 vs aprotinin addition, effects not additive
  rate of inhibition of the transepithelial voltage: identical rates
[5]
  inhibition of trypsin cleavage of fluorogenic substrate BGAR-MCA: ~100%
[6]
  BGAR-MCA cleavage on human bronchial epithelial mucosal surfaces: inhibited
[7]
  FRET between αENaC-eGFP and βENaC-mCherry: no effect
[8]
  CF ASL hyperabsorption: reduces CF ASL hyperabsorption
[8]; neutrophil elastase
  CF ASL hyperabsorption in the presence of neutrophil elastase: did not prevent neutrophil elastase from activating ENaC
